According to ChEMBL document CHEMBL1129026, “Rapid microscale synthesis, a new method for lead optimization using robotics and solution phase chemistry: application to the synthesis and optimization of corticotropin-releasing factor1 receptor antagonists” (J Med Chem, 1996):

The molecules below were run against T1, Corticotropin-releasing factor receptor 1 (Homo sapiens, UniProt P34998) (assay: Inhibition of [125I]CRF binding to human corticotropin releasing factor receptor 1).
T1 sequence (P34998 whole entry): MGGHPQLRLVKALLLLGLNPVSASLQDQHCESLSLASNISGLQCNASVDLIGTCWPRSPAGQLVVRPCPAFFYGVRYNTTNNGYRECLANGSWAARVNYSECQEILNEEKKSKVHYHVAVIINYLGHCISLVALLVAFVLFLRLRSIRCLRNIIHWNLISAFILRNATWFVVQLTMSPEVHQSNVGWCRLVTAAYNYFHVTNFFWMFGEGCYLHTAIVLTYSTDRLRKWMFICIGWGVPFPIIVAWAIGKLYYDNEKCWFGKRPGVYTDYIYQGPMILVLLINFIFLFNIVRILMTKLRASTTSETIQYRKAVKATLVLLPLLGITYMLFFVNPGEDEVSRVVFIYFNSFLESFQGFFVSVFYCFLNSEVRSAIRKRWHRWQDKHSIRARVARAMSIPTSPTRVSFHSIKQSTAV

Row | Compound | Ki
1 | CCN(Cc1ccccc1)c1nc(C)nc(Nc2ccc(C)cc2)n1 | > 10 µM
2 | CCCN(Cc1ccccc1)c1nc(C)nc(Nc2c(CC)cccc2CC)n1 | > 10 µM
3 | C=CCN(CC=C)c1nc(C)nc(Nc2ccc(C)cc2)n1 | > 10 µM
4 | C=CCN(CC=C)c1nc(C)nc(Nc2c(C)cccc2C)n1 | > 10 µM
5 | CCCN(CC1CC1)c1nc(C)nc(Nc2ccc(OC)cc2OC)n1 | 8 µM
6 | CCCN(CC1CC1)c1nc(C)nc(Nc2c(CC)cccc2CC)n1 | > 10 µM
7 | CCCN(CC1CC1)c1nc(C)nc(Nc2ccc(C)cc2)n1 | > 10 µM
8 | Cc1nc(NCc2ccc(C(F)(F)F)cc2)nc(Nc2c(C)cccc2C)n1 | > 10 µM
9 | CCc1cccc(CC)c1Nc1nc(C)nc(NCc2ccc(C(F)(F)F)cc2)n1 | 55 µM
10 | Cc1ccc(Nc2nc(C)nc(NCc3ccc(C(F)(F)F)cc3)n2)cc1 | > 10 µM
11 | CCCN(Cc1ccccc1)c1nc(C)nc(Nc2c(C)cccc2C)n1 | > 10 µM
12 | CCCN(CC1CC1)c1nc(C)nc(Nc2c(C)cccc2C)n1 | > 10 µM
13 | CCCN(CC1CC1)c1nc(C)nc(Nc2ccc(C)cc2C)n1 | > 10 µM
14 | CCCN(Cc1ccccc1)c1nc(C)nc(Nc2ccc(C)cc2)n1 | > 10 µM
15 | CCCN(CC1CC1)c1nc(CC)nc(Nc2c(C)cc(C)cc2C)n1 | > 10 µM
16 | CCN(Cc1ccccc1)c1nc(C)nc(Nc2c(C)cccc2C)n1 | > 10 µM

The next molecules have a lower Ki than those just listed; values first:

Row | Ki | Compound
17 | 1.47 µM | CCN(Cc1ccccc1)c1nc(C)nc(Nc2c(C)cc(C)cc2C)n1
18 | 0.49 µM | CCCCN(CCCC)c1nc(C)nc(Nc2c(C)cc(C)cc2C)n1
19 | 0.49 µM | CCCN(Cc1ccccc1)c1nc(C)nc(Nc2c(C)cc(C)cc2C)n1
20 | 0.13 µM | CCCN(CCC)c1nc(C)nc(Nc2c(C)cc(C)cc2C)n1
21 | 1.05 µM | CCCCN(Cc1ccccc1)c1nc(C)nc(Nc2c(C)cc(C)cc2C)n1
22 | 0.115 µM | C=CCN(CC=C)c1nc(C)nc(Nc2c(C)cc(C)cc2C)n1
23 | 1.7 µM | CCc1cccc(CC)c1Nc1nc(C)nc(N(CC)Cc2ccccc2)n1
